BindingDB's records for doi:10.1016/j.bmc.2018.07.019 (The Scripps Research Institute, 2018)

assay: Inhibition of ATG-Myc (unknown origin) expressed in CEF cells assessed as inhibition of microtumor formation

`COc1ccc(-c2cc(-c3ccc(C(N)=O)cc3)nc(-c3ccccc3)n2)cc1` and `N#Cc1ccc(-c2cc(-c3ccc(C(N)=O)cc3)nc(-c3cc[n+]([O-])cc3)n2)cc1` cannot be ordered by IC50: over 100 µM for the first, over 100 µM for the second.

First: NC(=O)c1ccc(-c2cc(-c3ccc(-c4cnco4)cc3)nc(-c3ccco3)c2)cc1
Second: NC(=O)c1ccc(-c2cc(-c3ccc(-c4nccs4)cc3)nc(-c3ccco3)c2)cc1
The IC50 of the first is 2-fold lower: 2.5 µM for the first, 5 µM for the second. The first is the more potent here.

`Cn1ccnc1-c1cc(-c2ccc(C(N)=O)cc2)cc(-c2ccc(C#N)cc2)n1` and `Cn1nncc1-c1cc(-c2ccc(C(N)=O)cc2)cc(-c2ccc(C#N)cc2)n1` are the same in IC50: 40 µM for the first, 40 µM for the second.

Going from `N#Cc1ccc(-c2cc(-c3ccc(C(N)=O)cc3)cc(-c3cncs3)n2)cc1` to `N#Cc1ccc(-c2cc(-c3ccc(C(N)=O)cc3)cc(-c3cnco3)n2)cc1`, the IC50 falls from 30 µM to 5 µM (6-fold). The second is the more potent here.

First: N#Cc1ccc(-c2cc(-c3ccc(C(N)=O)cc3)nc(-c3ccco3)n2)cc1
Second: N#Cc1ccc(-c2cc(-c3ccc(C(N)=O)cc3)cc(-c3ccco3)n2)cc1
The IC50 of the first is 2.3-fold higher: 7 µM for the first, 3 µM for the second.

`N#Cc1ccc(-c2cc(-c3ccc(C(N)=O)cc3)cc(-c3cccc(F)c3)n2)cc1` and `N#Cc1ccc(-c2cc(-c3ccc(C(=O)NN)cc3)cc(-c3ccco3)n2)cc1` cannot be ordered by IC50: over 100 µM for the first, over 100 µM for the second.

Compared with `CS(=O)(=O)NC(=O)c1ccc(-c2cc(-c3ccc(C#N)cc3)nc(-c3ccco3)c2)cc1`, `N#Cc1ccc(-c2cc(-c3ccc(-c4nnn[nH]4)cc3)cc(-c3ccco3)n2)cc1` is 5-fold lower in IC50: 10 µM for the first, 2 µM for the second. The second is the more potent here.

Molecule `c1coc(-c2cc(-c3nccs3)cc(-c3ccc(-c4nccs4)cc3)n2)c1` has an IC50 of over 100 µM.
